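Results reflect a 48-hour exposure of cells in 96-well plates to compound at five concentrations. GI50: concentration for 50% inhibition of growth.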 The source made the active and inactive calls. Rule as the data show it: active = GI50 up to about 1.1 µM and inactive = higher. Non-standard residues stand in square brackets, D forms with d. Residues, ends and D or L forms follow the SMILES beside them. *: point of attachment. NMeF = CN[CH](Cc1ccccc1)C(=O)O; NMeV = CN[CH](C(=O)O)C(C)C; Boc = CC(C)(C)OC(=O)*
Legend:
Assay in all cases: growth of human tumour cells (NCI), 48 h
LOX IMVI = test system: LOX IMVI
SF-539 = test system: SF-539
EKVX = test system: EKVX
OVCAR-4 = test system: OVCAR-4
NCI-H226 = test system: NCI-H226
SF-268 = test system: SF-268
RPMI-8226 = test system: RPMI-8226
A498 = test system: A498
UO-31 = test system: UO-31
RXF 393 = test system: RXF 393
COLO 205 = test system: COLO 205
CCRF-CEM = test system: CCRF-CEM
SW-620 = test system: SW-620
M14 = test system: M14
SK-OV-3 = test system: SK-OV-3

Measured: GI50

Cc1ccccc1-n1c(N)c(-c2nc3ccccc3[nH]2)sc1=S
inactive: LOX IMVI 28.1 µM | SF-539 24.1 µM | EKVX 53.5 µM | OVCAR-4 28.8 µM | NCI-H226 36 µM | SF-268 29.6 µM | RPMI-8226 23.1 µM | A498 40.1 µM | UO-31 23.8 µM | RXF 393 30.1 µM | COLO 205 22.6 µM | CCRF-CEM 36.5 µM | SW-620 31.1 µM | M14 20.5 µM | SK-OV-3 43.4 µM

CN(C)c1ccccc1CC(c1c[nH]c2ccccc12)c1c[nH]c2ccccc12
inactive: LOX IMVI 11.8 µM | SF-539 17.2 µM | EKVX 5.38 µM | OVCAR-4 9.06 µM | NCI-H226 12.1 µM | SF-268 14.8 µM | A498 17.1 µM | UO-31 10.9 µM | RXF 393 7.91 µM | COLO 205 2.82 µM | CCRF-CEM 9.51 µM | SW-620 6.7 µM | M14 11.4 µM | SK-OV-3 19.3 µM

CC1=C(C(=O)Nc2ccccc2)C(c2cccc3ccccc23)C(C(=O)Nc2ccccc2)=C(C)N1
inactive: LOX IMVI 16.7 µM | SF-539 20.4 µM | EKVX 11.8 µM | OVCAR-4 > 10 µM | NCI-H226 1.74 µM | SF-268 21.5 µM | A498 24.1 µM | UO-31 21.6 µM | RXF 393 14.4 µM | COLO 205 13.4 µM | CCRF-CEM 26.7 µM | SW-620 22.4 µM | M14 17.7 µM | SK-OV-3 17.1 µM

C=C1C(=O)OC2C1CC[C@H](C)C13OC(=O)CC1[C@@]23C (stereo not given in full)
inactive: SF-539 > 100 µM | EKVX > 100 µM | NCI-H226 > 100 µM | SF-268 > 100 µM | RPMI-8226 > 100 µM | A498 > 100 µM | UO-31 > 100 µM | RXF 393 > 100 µM | COLO 205 > 100 µM | CCRF-CEM > 100 µM | SW-620 > 100 µM | SK-OV-3 > 100 µM

Cc1ccc(NC(=O)C(=O)CC(=O)c2ccccc2)cc1C
inactive: LOX IMVI > 100 µM | SF-539 > 100 µM | EKVX > 100 µM | OVCAR-4 > 100 µM | NCI-H226 > 100 µM | SF-268 > 100 µM | RPMI-8226 > 100 µM | A498 > 100 µM | UO-31 > 100 µM | RXF 393 > 100 µM | COLO 205 > 100 µM | SW-620 > 100 µM | M14 > 100 µM | SK-OV-3 > 100 µM

c1cc2ccc1C1NCCCN1CCN1CCCNC1c1ccc(cc1)C1NCCCN1CCN1CCCNC21 (stereo not given)
inactive: LOX IMVI 92.3 µM | SF-539 > 100 µM | EKVX > 100 µM | OVCAR-4 > 100 µM | SF-268 > 100 µM | RPMI-8226 70.6 µM | A498 > 100 µM | UO-31 > 100 µM | COLO 205 54.3 µM | CCRF-CEM 41.8 µM | SW-620 18.5 µM | M14 99.8 µM | SK-OV-3 > 100 µM

N#CCC(=O)N1CCCOCCC1
inactive: LOX IMVI 44.8 µM | SF-539 > 100 µM | EKVX > 100 µM | OVCAR-4 38.6 µM | SF-268 > 100 µM | A498 > 100 µM | UO-31 > 100 µM | RXF 393 > 100 µM | COLO 205 21.8 µM | CCRF-CEM > 100 µM | SW-620 6.73 µM | M14 > 100 µM | SK-OV-3 > 100 µM

O=C(NCCCCNc1cccccc1=O)OCc1ccccc1
inactive: LOX IMVI > 100 µM | EKVX > 100 µM | OVCAR-4 > 100 µM | NCI-H226 > 100 µM | SF-268 > 100 µM | RPMI-8226 > 100 µM | A498 > 100 µM | UO-31 58.5 µM | COLO 205 > 100 µM | CCRF-CEM > 100 µM | SW-620 > 100 µM | M14 > 100 µM | SK-OV-3 > 100 µM

CCC1C(C)c2c([nH]c3ccccc23)C2C(=O)N(c3ccccc3)C(=O)C21 (stereo not given)
inactive: LOX IMVI 15.7 µM | SF-539 18.7 µM | EKVX 14 µM | OVCAR-4 13.4 µM | SF-268 20 µM | RPMI-8226 11.9 µM | RXF 393 12.7 µM | COLO 205 16.1 µM | CCRF-CEM 18 µM | SW-620 16.5 µM | M14 17.8 µM | SK-OV-3 19.4 µM

CC(=O)C1(O)CC2(c3ccccc3)C(=O)C1(c1ccccc1)C(c1ccccc1)=C2c1ccccc1 (stereo not given)
inactive: LOX IMVI > 100 µM | SF-539 > 100 µM | EKVX > 100 µM | OVCAR-4 13.5 µM | NCI-H226 > 100 µM | SF-268 > 100 µM | RPMI-8226 16.5 µM | A498 > 100 µM | UO-31 58.5 µM | RXF 393 > 100 µM | COLO 205 > 100 µM | CCRF-CEM > 100 µM | SW-620 > 100 µM | M14 > 100 µM | SK-OV-3 > 100 µM

COC(=O)C1CC2c3c(c4ccccc4n3C)CC(C1=O)N2C (stereo not given)
inactive: LOX IMVI 78.9 µM | SF-539 32.5 µM | EKVX 57.1 µM | OVCAR-4 37.3 µM | NCI-H226 50.6 µM | SF-268 68.9 µM | A498 28.2 µM | UO-31 21.4 µM | COLO 205 17.3 µM | CCRF-CEM 34.6 µM | SW-620 34.8 µM | M14 37.8 µM | SK-OV-3 51.4 µM

CCOC(=O)c1c(-c2[nH]c(C(=O)OCc3ccccc3)c(C)c2C(=O)OCC)[nH]c(C(=O)OCc2ccccc2)c1C
inactive: LOX IMVI > 100 µM | SF-539 48.4 µM | EKVX > 100 µM | NCI-H226 > 100 µM | SF-268 > 100 µM | RPMI-8226 > 100 µM | A498 > 100 µM | UO-31 > 100 µM | RXF 393 19.9 µM | COLO 205 > 100 µM | SW-620 > 100 µM | M14 > 100 µM | SK-OV-3 > 100 µM

C#Cc1c(C)c(/C=C/C(C)=C/C(=O)OC)n(C)c1C
inactive: LOX IMVI > 100 µM | SF-539 > 100 µM | EKVX > 100 µM | OVCAR-4 82.2 µM | NCI-H226 > 100 µM | SF-268 79.3 µM | RPMI-8226 40.3 µM | A498 > 100 µM | UO-31 > 100 µM | COLO 205 > 100 µM | CCRF-CEM 51.9 µM | SW-620 > 100 µM | M14 > 100 µM | SK-OV-3 > 100 µM

COc1cc(C(=O)C(CO)Oc2ccccc2OC)ccc1O (stereo not given)
inactive: SF-539 > 100 µM | EKVX > 100 µM | OVCAR-4 > 100 µM | NCI-H226 > 100 µM | SF-268 > 100 µM | UO-31 > 100 µM | COLO 205 > 100 µM | CCRF-CEM > 100 µM | SW-620 > 100 µM | M14 > 100 µM | SK-OV-3 > 100 µM

CC1=CC(=O)N2C(OC[C@@H]2c2ccccc2)O1 (stereo not given in full)
inactive: SF-539 > 100 µM | EKVX > 100 µM | OVCAR-4 > 100 µM | NCI-H226 > 100 µM | SF-268 > 100 µM | RPMI-8226 > 100 µM | UO-31 > 100 µM | RXF 393 > 100 µM | COLO 205 > 100 µM | CCRF-CEM > 100 µM | SW-620 > 100 µM | M14 > 100 µM | SK-OV-3 > 100 µM

CC(C)c1cc(C(C)C)c(S(=O)(=O)N=[N+]=[N-])c(C(C)C)c1
inactive: LOX IMVI 47 µM | SF-539 > 100 µM | OVCAR-4 81.8 µM | NCI-H226 > 100 µM | SF-268 67.3 µM | RPMI-8226 18.7 µM | UO-31 > 100 µM | RXF 393 68.4 µM | COLO 205 > 100 µM | CCRF-CEM 34.9 µM | SW-620 > 100 µM | M14 > 100 µM | SK-OV-3 > 100 µM

N=C(N)NS(=O)(=O)c1ccc(Nc2c3ccccc3nc3c(C(=O)Nc4ccc(S(N)(=O)=O)cc4)ccc(Cl)c23)cc1
inactive: LOX IMVI > 100 µM | SF-539 > 100 µM | EKVX > 100 µM | OVCAR-4 > 100 µM | NCI-H226 > 100 µM | SF-268 > 100 µM | RPMI-8226 > 100 µM | A498 > 100 µM | UO-31 > 100 µM | RXF 393 > 100 µM | COLO 205 > 100 µM | SW-620 > 100 µM | M14 > 100 µM | SK-OV-3 > 100 µM

N=C1CSC2=NC3=C(CCC/C3=C\c3ccccc3)C(c3ccccc3)N12 (stereo not given)
inactive: LOX IMVI 2.26 µM | SF-539 6 µM | EKVX 2.62 µM | NCI-H226 6.38 µM | SF-268 11.8 µM | RPMI-8226 2.16 µM | A498 13.9 µM | UO-31 11.2 µM | RXF 393 4.5 µM | COLO 205 8.89 µM | CCRF-CEM 2.24 µM | SW-620 3.92 µM | M14 3.3 µM | SK-OV-3 15.1 µM

COc1ccc(-c2cc(=O)c3cc(O)ccc3o2)c(OC)c1OC
inactive: LOX IMVI 21.7 µM | SF-539 68.5 µM | EKVX 12.2 µM | OVCAR-4 27.2 µM | NCI-H226 41.6 µM | SF-268 24.8 µM | RPMI-8226 12.9 µM | RXF 393 28.2 µM | COLO 205 75.2 µM | CCRF-CEM 4.73 µM | SW-620 40.8 µM | M14 37.9 µM | SK-OV-3 35.3 µM

CC(C)C(NC(=O)OC(C)(C)C)C(=O)N(C)C(Cc1ccccc1)C(=O)N(C)C(C(=O)O)C(C)C (stereo not drawn) (Boc-Val-[NMeF]-[NMeV]-OH; configuration not given here)
inactive: LOX IMVI > 100 µM | SF-539 > 100 µM | EKVX > 100 µM | NCI-H226 > 100 µM | SF-268 62.4 µM | RPMI-8226 > 100 µM | UO-31 > 100 µM | COLO 205 > 100 µM | CCRF-CEM > 100 µM | SW-620 > 100 µM | M14 > 100 µM | SK-OV-3 > 100 µM
